Reference: article PMC11252418, “Specific glycine-dependent enzyme motion determines the potency of conformation selective inhibitors of threonyl-tRNA synthetase” (Communications Biology, 2024)
Several values for one entry are separate records, joined by “and”; a condition that tells them apart may be missing. Identical values can stand only once.

Key:
Experiment in all cases: ATP hydrolysis assay
EcThrRS_A316N = biological target: T1, EcThrRS_A316N (Escherichia coli, UniProt P0A8M3, A316N); format: biochemical; settings: OB, replicates, sheet Fig.S4b
T1 construct: The E. coli ThrRS (residues 242-642, Supplementary Note 1) wild type; 6xHis (C); made in house; host or cells: E. coli BL21 (DE3)
T1 sequence (P0A8M3 242-642 A316N): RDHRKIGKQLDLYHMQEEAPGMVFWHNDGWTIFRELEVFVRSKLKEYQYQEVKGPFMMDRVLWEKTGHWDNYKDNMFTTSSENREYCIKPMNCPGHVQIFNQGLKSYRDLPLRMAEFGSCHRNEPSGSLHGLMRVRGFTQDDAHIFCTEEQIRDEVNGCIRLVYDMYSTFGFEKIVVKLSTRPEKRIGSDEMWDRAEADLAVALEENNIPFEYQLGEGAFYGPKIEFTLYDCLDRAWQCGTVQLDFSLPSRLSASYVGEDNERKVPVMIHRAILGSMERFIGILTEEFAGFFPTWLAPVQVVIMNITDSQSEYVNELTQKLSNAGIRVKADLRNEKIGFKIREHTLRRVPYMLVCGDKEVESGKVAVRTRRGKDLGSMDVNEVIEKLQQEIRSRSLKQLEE
Description: (§1) 200 nM EcThrRS wide type and mutants, ObaO and ObaO_S464G mutant were incubated with serially diluted OB (0 to 10 μM for EcThrRS, 0 to 40 μM for ObaO) in a buffer containing 25 mM HEPES pH 7.5, 50 mM NaCl, 40 mM MgCl2, 30 mM KCl, 0.01 mg/mL bovine serum albumin (BSA), and 0.004% Tween-20 at 37 °C for 4 h and then mixed 1:1 with a substrate mixture containing 4 μM ATP, 40 μM L-threonine, 25 mM HEPES pH 7.5, 50 mM NaCl, 40 mM MgCl2, 30 mM KCl, 0.01 mg/mL BSA, and 0.004% Tween-20. The ATP hydrolysis reaction was performed at 37 °C for 4 h.
(§2) After incubation, the detection solution from the Kinase-Glo® luminescent kit (Promega, USA) was added to the reaction system at a 1:1 ratio, and the mixture was gently shaken for 10 min. The chemiluminescence signal was measured using a microplate reader (Tecan, USA). All experiments were performed in four replicates. The data were processed using GraphPad Prism 8 software.

ObaO_WT = format: biochemical, Pseudomonas fluorescens; settings: for ATP hydrolysis activity, inhibitory curve data point: OB, replicates, sheet Fig.S11b
Description: as §1, §2

ObaO_S464G = format: biochemical, Pseudomonas fluorescens; settings: for ATP hydrolysis activity, inhibitory curve data point: OB, replicates, sheet Fig.S11b
Description: as §1, §2

O=C(N[C@@H]1C(=O)O[C@@H]1Cc1ccc([N+](=O)[O-])cc1)c1cccc(O)c1O [OB, Obafluorin] was tested, and the “ATP hydrolysis activity, inhibitory curve data point” value (EcThrRS_A316N; Log10 Conc. 0.991, A316N) was 88.637 and 98.163 and 100.359 and 100.821, the “ATP hydrolysis activity, inhibitory curve data point” value (EcThrRS_A316N; Log10 Conc. 1.290, A316N) was 94.677 and 95.220 and 104.669 and 107.135 and the “ATP hydrolysis activity, inhibitory curve data point” value (EcThrRS_A316N; Log10 Conc. 1.591, A316N) was 79.114 and 84.617 and 87.973 and 87.592. For the same molecule, the “ATP hydrolysis activity, inhibitory curve data point” value (EcThrRS_A316N; Log10 Conc. 1.892, A316N) was 95.097 and 93.442 and 93.401 and 99.302, the “ATP hydrolysis activity, inhibitory curve data point” value (EcThrRS_A316N; Log10 Conc. 2.193, A316N) was 78.735 and 83.708 and 90.525 and 92.235 and the “ATP hydrolysis activity, inhibitory curve data point” value (EcThrRS_A316N; Log10 Conc. 2.494, A316N) was 68.683 and 74.410 and 84.890 and 82.431. For the same molecule, the “ATP hydrolysis activity, inhibitory curve data point” value (EcThrRS_A316N; Log10 Conc. 2.796, A316N) was 50.753 and 55.935 and 67.595 and 73.554, the “ATP hydrolysis activity, inhibitory curve data point” value (EcThrRS_A316N; Log10 Conc. 3.097, A316N) was 29.054 and 40.656 and 45.720 and 53.072 and the “ATP hydrolysis activity, inhibitory curve data point” value (EcThrRS_A316N; Log10 Conc. 3.398, A316N) was -3.828 and 7.860 and 7.462 and 26.771. For the same molecule, the “ATP hydrolysis activity, inhibitory curve data point” value (EcThrRS_A316N; Log10 Conc. 3.699, A316N) was 7.311 and 15.246 and 17.984 and 36.982, the “inhibitory effect” value (ObaO_WT; ATP hydrolysis activity) was “no inhibitory effect” and the “ATP hydrolysis activity, inhibitory curve data point” value (ObaO_WT; Log10 Conc. 1.290, ObaO_WT) was 107.974 and 109.176 and 107.694 and 98.285. The “ATP hydrolysis activity, inhibitory curve data point” value (ObaO_WT; Log10 Conc. 1.591, ObaO_WT) was 108.081 and 109.543 and 108.587 and 102.335, the “ATP hydrolysis activity, inhibitory curve data point” value (ObaO_WT; Log10 Conc. 1.892, ObaO_WT) was 104.532 and 105.736 and 104.839 and 104.593 and the “ATP hydrolysis activity, inhibitory curve data point” value (ObaO_WT; Log10 Conc. 2.193, ObaO_WT) was 105.347 and 104.330 and 104.759 and 104.369. For the same molecule, the “ATP hydrolysis activity, inhibitory curve data point” value (ObaO_WT; Log10 Conc. 2.494, ObaO_WT) was 105.496 and 103.616 and 104.222 and 104.732, the “ATP hydrolysis activity, inhibitory curve data point” value (ObaO_WT; Log10 Conc. 2.796, ObaO_WT) was 106.437 and 103.177 and 103.705 and 104.207 and the “ATP hydrolysis activity, inhibitory curve data point” value (ObaO_WT; Log10 Conc. 3.097, ObaO_WT) was 106.181 and 102.182 and 103.687 and 102.015. The “ATP hydrolysis activity, inhibitory curve data point” value (ObaO_WT; Log10 Conc. 3.398, ObaO_WT) was 106.327 and 105.039 and 104.877 and 99.875, the “ATP hydrolysis activity, inhibitory curve data point” value (ObaO_WT; Log10 Conc. 3.699, ObaO_WT) was 106.394 and 102.812 and 104.598 and 101.892 and the “ATP hydrolysis activity, inhibitory curve data point” value (ObaO_WT; Log10 Conc. 4.000, ObaO_WT) was 107.419 and 105.942 and 102.834 and 91.914. For the same molecule, the “ATP hydrolysis activity, inhibitory curve data point” value (ObaO_WT; Log10 Conc. 4.301, ObaO_WT) was 100.516 and 99.049 and 100.129 and 101.285, the IC50 (ObaO_S464G; ATP hydrolysis activity) was 3.9 µM and the “ATP hydrolysis activity, inhibitory curve data point” value (ObaO_S464G; Log10 Conc. 1.290, ObaO_S464G) was 99.512 and 99.495 and 99.321 and 98.415. For the same molecule, the “ATP hydrolysis activity, inhibitory curve data point” value (ObaO_S464G; Log10 Conc. 1.591, ObaO_S464G) was 100.192 and 100.232 and 100.159 and 99.124, the “ATP hydrolysis activity, inhibitory curve data point” value (ObaO_S464G; Log10 Conc. 1.892, ObaO_S464G) was 100.052 and 100.356 and 99.951 and 99.355 and the “ATP hydrolysis activity, inhibitory curve data point” value (ObaO_S464G; Log10 Conc. 2.193, ObaO_S464G) was 99.838 and 99.793 and 100.063 and 99.551. For the same molecule, the “ATP hydrolysis activity, inhibitory curve data point” value (ObaO_S464G; Log10 Conc. 2.494, ObaO_S464G) was 100.255 and 99.793 and 99.917 and 100.035, the “ATP hydrolysis activity, inhibitory curve data point” value (ObaO_S464G; Log10 Conc. 2.796, ObaO_S464G) was 99.484 and 99.326 and 99.169 and 98.438 and the “ATP hydrolysis activity, inhibitory curve data point” value (ObaO_S464G; Log10 Conc. 3.097, ObaO_S464G) was 97.897 and 97.852 and 97.621 and 97.352. For the same molecule, the “ATP hydrolysis activity, inhibitory curve data point” value (ObaO_S464G; Log10 Conc. 3.398, ObaO_S464G) was 93.815 and 92.992 and 93.578 and 91.403, the “ATP hydrolysis activity, inhibitory curve data point” value (ObaO_S464G; Log10 Conc. 3.699, ObaO_S464G) was 77.343 and 76.749 and 76.793 and 77.009 and the “ATP hydrolysis activity, inhibitory curve data point” value (ObaO_S464G; Log10 Conc. 4.000, ObaO_S464G) was 40.598 and 39.832 and 38.831 and 45.976. For the same molecule, the “ATP hydrolysis activity, inhibitory curve data point” value (ObaO_S464G; Log10 Conc. 4.301, ObaO_S464G) was -1.615 and -1.887 and 0.161 and 3.342.
